From the supplement of paper PMC10307832 come the findings set out here.

Holding throughout (assay): relative viability (nuclei count vs DMSO), 5 days (fraction); higher = more cells survive
Compound in assay [1]: C[C@]12O[C@H](C[C@]1(O)CO)n1c3ccccc3c3c4c(c5c6ccccc6n2c5c31)CNC4=O [Lestaurtinib] + CC(=O)Nc1cccc(-n2c(=O)n(C3CC3)c(=O)c3c(Nc4ccc(I)cc4F)n(C)c(=O)c(C)c32)c1 [Trametinib] (partner 0.02 µM)
In a few lines: (§1)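 Relative viability was taken as the ratio of nuclei in treated wells to nuclei in vehicle wells. Lung cancer cell lines in 1536-well plates received compounds by pin tool one day after seeding, either one drug alone or a fixed anchor-drug dose plus five library-drug doses (not always all listed) in √10 steps. Nuclei were counted on 4× images after 5 days of treatment, and values are medians of duplicate plates.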

Compound in assay [2]: C1=CC(=CC=C1C2=CC(=C(S2)NC(=O)N)C(=O)N)F [TPCA-1] + Cc1cc(Nc2cc(N3CCN(C)CC3)nc(Sc3ccc(NC(=O)C4CC4)cc3)n2)n[nH]1 [Tozasertib] (partner 0.1 µM)
In a few lines:
as §1

Compound in assay [3]: C[C@]12O[C@H](C[C@]1(O)CO)n1c3ccccc3c3c4c(c5c6ccccc6n2c5c31)CNC4=O [Lestaurtinib] + Nc1ncn([C@H]2C[C@H](O)[C@@H](CO)O2)c(=O)n1 [Decitabine] (partner 2 µM)
In a few lines: as §1

Compound in assay [4]: C1/C(=C\C2=CC=CS2)/C(=O)/C(=C/C3=CC=CS3)/C1 + CS(=O)(=O)N1CCN(Cc2cc3nc(-c4cccc5[nH]ncc45)nc(N4CCOCC4)c3s2)CC1 [Pictilisib] (partner 1 µM)
In a few lines: as §1

For UMC-11, the relative viability in assay [1] (first compound 0.005 µM) is 0.746; in assay [1] (first compound 0.01581 µM), 0.6; in assay [1] (first compound 0.05 µM) it was 0.601; in assay [1] (first compound 0.1581 µM), 0.311; in assay [1] (first compound 0.5 µM), 0.155; in assay [2] (first compound 0.04 µM) it was 0.208. Moreover, the relative viability is 0.207 in assay [2] (first compound 0.1265 µM); 0.216 in assay [2] (first compound 0.4 µM); 0.178 in assay [2] (first compound 1.265 µM); 0.187 in assay [2] (first compound 4 µM); 0.63 in assay [3] (first compound 0.005 µM); 1.49 in assay [3] (first compound 0.01581 µM). Further, the relative viability in assay [3] (first compound 0.05 µM) was 0.544; in assay [3] (first compound 0.1581 µM), 0.241; in assay [3] (first compound 0.5 µM), 0.218; in assay [4] (first compound 0.2 µM), 0.829; in assay [4] (first compound 0.6325 µM) it was 0.962; in assay [4] (first compound 2 µM), 0.934. For the same cell line, the relative viability in assay [4] (first compound 20 µM) was 0.758.
